Laboratory results published in patent publication US20070043049A1, “Substituted heterocyclic diarylamine analogues” (Neurogen Corporation, priority 2003, published 2007).

Target: T1, human capsaicin receptor (Homo sapiens, UniProt Q8NER1)
T1 construct: pBK-CMV expression construct encoding the full length human capsaicin receptor; expressed in transfected cells
Experiment: Calcium mobilization assay, determination of antagonist activity (Example 6)
Type: cell-based
Conditions: 50% decrease in fluorescence response of cells expressing human capsaicin receptor exposed to capsaicin
Protocol: A cDNA encoding full length human capsaicin receptor (SEQ ID NO:1, 2 or 3 of U.S. Pat. No. 6,482,611) was subcloned in the plasmid pBK-CMV (Stratagene, La Jolla, Calif.) for recombinant expression in mammalian cells.
Human embryonic kidney (HEK293) cells were transfected with the pBK-CMV expression construct encoding the full length human capsaicin receptor using standard methods. The transfected cells were selected for two weeks in media containing G418 (400 μg/ml) to obtain a pool of stably transfected cells. Independent clones were isolated from this pool by limiting dilution to obtain clonal stable cell lines for use in subsequent experiments.
Cells transfected with expression plasmids (as described in Example 4) and thereby expressing human capsaicin receptor are seeded and grown to 70-90% confluency in FALCON black-walled, clear-bottomed 96-well plates (#3904, BECTON-DICKINSON, Franklin Lakes, N.J.). The culture medium is emptied from the 96 well plates and FLUO-3 AM calcium sensitive dye (Molecular Probes, Eugene, Oreg.) is added to each well (dye solution: 1 mg FLUO-3 AM, 440 μL DMSO and 440 μl 20% pluronic acid in DMSO, diluted 1:250 in Krebs-Ringer HEPES (KRH) buffer (25 mM HEPES, 5 mM KCl, 0.96 mM NaH2PO4, 1 mM MgSO4, 2 mM CaCl2, 5 mM glucose, 1 mM probenecid, pH 7.4), 50 μl diluted solution per well). Plates are covered with aluminum foil and incubated at 37° C. for 1-2 hours in an environment containing 5% CO2. After the incubation, the dye is emptied from the plates, and the cells are washed once with KRH buffer, and resuspended in KRH buffer.
To measure the ability of a test compound to agonize or antagonize a calcium mobilization response in cells expressing capsaicin receptors to capsaicin or other vanilloid agonist, the EC50 of the agonist capsaicin is first determined. An additional 20 μl of KRH buffer and 1 μl DMSO is added to each well of cells, prepared as described above. 100 μl capsaicin in KRH buffer is automatically transferred by the FLIPR instrument to each well. Capsaicin-induced calcium mobilization is monitored using either FLUOROSKAN ASCENT (Labsystems; Franklin, Mass.) or FLIPR (fluorometric imaging plate reader system; Molecular Devices, Sunnyvale, Calif.) instruments. Data obtained between 30 and 60 seconds after agonist application are used to generate an 8-point concentration response curve, with final capsaicin concentrations of 1 nM to 3 μM. KALEIDAGRAPH software (Synergy Software, Reading, Pa.) is used to fit the data to the equation: y=a*(1/(1+(b/x)^c)) to determine the 50% excitatory concentration (EC50) for the response. In this equation, y is the maximum fluorescence signal, x is the concentration of the agonist or antagonist (in this case, capsaicin), a is the Emax, b corresponds to the EC50 value and c is the Hill coefficient. Determination of Agonist Activity
Test compounds are dissolved in DMSO, diluted in 20 μl KRH buffer so that the final concentration of test compounds in the assay well is between 1 μM and 5 μM, and added to cells prepared as described above. The 96 well plates containing prepared cells and test compounds are incubated in the dark, at room temperature for 0.5 to 6 hours. It is important that the incubation not continue beyond 6 hours. Just prior to determining the fluorescence response, 100 μl capsaicin in KRH buffer at twice the EC50 concentration determined as described above is automatically added by the FLIPR instrument to each well of the 96 well plate for a final sample volume of 200 μl and a final capsaicin concentration equal to the EC50. The final concentration of test compounds in the assay wells is between 1 μM and […]. […] The concentration of antagonist required to provide a 50% decrease, relative to the response observed in the presence of capsaicin and without antagonist, is the IC50 for the antagonist, and is preferably below 1 micromolar, 100 nanomolar, 10 nanomolar or 1 nanomolar.

T1 sequence (Q8NER1 whole entry): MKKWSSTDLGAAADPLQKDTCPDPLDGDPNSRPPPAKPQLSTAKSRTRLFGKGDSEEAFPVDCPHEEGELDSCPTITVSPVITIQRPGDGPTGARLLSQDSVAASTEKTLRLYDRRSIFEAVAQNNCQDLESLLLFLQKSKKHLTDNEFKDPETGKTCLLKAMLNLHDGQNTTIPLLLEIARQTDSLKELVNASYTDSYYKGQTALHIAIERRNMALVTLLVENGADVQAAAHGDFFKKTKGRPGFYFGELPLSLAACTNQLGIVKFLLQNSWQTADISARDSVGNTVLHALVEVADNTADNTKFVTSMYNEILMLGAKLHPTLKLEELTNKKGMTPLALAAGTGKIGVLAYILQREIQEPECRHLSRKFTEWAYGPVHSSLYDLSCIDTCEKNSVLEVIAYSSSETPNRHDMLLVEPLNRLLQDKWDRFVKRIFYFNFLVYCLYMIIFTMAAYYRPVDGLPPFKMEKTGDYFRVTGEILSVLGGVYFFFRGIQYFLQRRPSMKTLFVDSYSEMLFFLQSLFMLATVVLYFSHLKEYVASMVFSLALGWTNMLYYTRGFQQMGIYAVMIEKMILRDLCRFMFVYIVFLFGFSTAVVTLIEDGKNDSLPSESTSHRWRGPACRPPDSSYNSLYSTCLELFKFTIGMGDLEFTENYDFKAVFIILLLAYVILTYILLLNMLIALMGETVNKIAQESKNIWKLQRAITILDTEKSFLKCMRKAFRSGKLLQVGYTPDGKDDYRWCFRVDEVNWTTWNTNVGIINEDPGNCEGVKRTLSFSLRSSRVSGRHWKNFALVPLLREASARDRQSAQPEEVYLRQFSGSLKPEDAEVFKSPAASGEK

| Compound | IC50 [nM] |
| --- | --- |
| CCCCN(C)c1nc(Nc2ccc(C(F)(F)F)cc2)nc(N2CCN(c3ncccc3Cl)C[C@H]2C)n1 [Compound 31, N-Butyl-6-[4-(3-chloro-pyridin-2-yl)-2-methyl-piperazin-1-yl]-N-methyl-N′-(4-trifluoromethyl-phenyl)-[1,3,5]triazine-2,4-diamine (R)] | ≤ 1000 |
| C[C@@H]1CN(c2ncccc2Cl)CCN1c1nc(NCc2cccc(C(F)(F)F)c2)nc(Nc2ccc(C(F)(F)F)cc2)n1 [Compound 37, 6-[4-(3-Chloro-pyridin-2-yl)-2-methyl-piperazin-1-yl]-N-(3-trifluoromethyl-benzyl)-N′-(4-trifluoromethyl-phenyl)-[1,3,5]triazine-2,4-diamine (R)] | ≤ 1000 |
| Cc1cccc(Nc2nc(N3CCOCC3)cc(N3CCN(c4ncccc4C(F)(F)F)CC3)n2)c1 [Compound 86, {4-Morpholin-4-yl-6-[4-(3-trifluoromethyl-pyridin-2-yl)-piperazin-1-yl]-pyrimidin-2-yl}-m-tolyl-amine] | ≤ 1000 |
| C[C@@H]1CN(c2ncccc2Cl)CCN1c1nc(Nc2ccc(C(C)(C)C)cc2)nc(OCc2ccccc2C(F)(F)F)n1 [Compound 5, (4-tert-Butyl-phenyl)-[4-[4-(3-chloro-pyridin-2-yl)-2-methyl-piperazin-1-yl]-6-(2-trifluoromethyl-benzyloxy)-[1,3,5]triazin-2-yl]-amine (R)] | ≤ 1000 |
| CCN(c1nc(Nc2cccc(F)c2)nc(N2CCN(c3ncccc3Cl)CC2)n1)C(C)C [Compound 80, 6-[4-(3-Chloro-pyridin-2-yl)-piperazin-1-yl]-N-ethyl-N′-(3-fluoro-phenyl)-N-isopropyl-[1,3,5]triazine-2,4-diamine] | ≤ 1000 |
| CN(C)c1nc(Nc2cccc(F)c2)nc(N2CCN(c3ncccc3Cl)CC2)n1 [Compound 76, 6-[4-(3-Chloro-pyridin-2-yl)-piperazin-1-yl]-N-(3-fluoro-phenyl)-N′,N′-dimethyl-[1,3,5]triazine-2,4-diamine] | ≤ 1000 |
| C[C@H]1CN(c2ncccc2C(F)(F)F)CCN1c1nc(Nc2ccc(C(F)(F)F)cc2)nc(-c2ccccc2Cl)n1 [Compound 16, {4-(2-Chloro-phenyl)-6-[2-methyl-4-(3-trifluoromethyl-pyridin-2-yl)-piperazin-1-yl]-[1,3,5]triazin-2-yl}-(4-trifluoromethyl-phenyl)-amine (S)] | ≤ 1000 |
| C[C@@H]1CN(c2ncccc2C(F)(F)F)CCN1c1nc(Nc2ccc(C(F)(F)F)cc2)nc(OCc2ccccc2C(F)(F)F)n1 [Compound 9] | ≤ 1000 |
| C[C@@H]1CN(c2ncccc2C(F)(F)F)CCN1c1nc(Nc2ccc(C(C)(C)C)cc2)nc(OCc2ccccc2C(F)(F)F)n1 [Compound 6, (4-tert-Butyl-phenyl)-[4-[2-methyl-4-(3-trifluoromethyl-pyridin-2-yl)-piperazin-1-yl]-6-(2-trifluoromethyl-benzyloxy)-[1,3,5]triazin-2-yl]-amine (R)] | ≤ 1000 |
| CCC(C)Nc1nc(Nc2ccc(C(F)(C(F)(F)F)C(F)(F)F)cc2)nc(N2CCN(c3ncccc3Cl)C[C@H]2C)n1 (stereo partly drawn) [Compound 27, N-sec-Butyl-6-[4-(3-chloro-pyridin-2-yl)-2-methyl-piperazin-1-yl]-N′-[4-(1,2,2,2-tetrafluoro-1-trifluoromethyl-ethyl)-phenyl]-[1,3,5]triazine-2,4-diamine (R)] | ≤ 1000 |
| Fc1ccc(Nc2nc(N3CCOCC3)nc(N3CCN(c4ncccc4Cl)CC3)n2)cc1 [Compound 61, {4-[4-(3-Chloro-pyridin-2-yl)-piperazin-1-yl]-6-morpholin-4-yl-[1,3,5]triazin-2-yl}-(4-fluoro-phenyl)-amine] | ≤ 1000 |
| CCCN(C)c1nc(Nc2ccc(C(F)(F)F)cc2)nc(N2CCN(c3ncccc3C(F)(F)F)CC2)n1 [Compound 48, N-Methyl-N-propyl-N′-(4-trifluoromethyl-phenyl)-6-[4-(3-trifluoromethyl-pyridin-2-yl)-piperazin-1-yl]-[1,3,5]triazine-2,4-diamine] | ≤ 1000 |
| CN(C)c1nc(Nc2ccc(C(F)(F)F)cc2)nc(N2CCN(c3ccccn3)CC2)n1 [Compound 43, N,N-Dimethyl-6-(4-pyridin-2-yl-piperazin-1-yl)-N′-(4-trifluoromethyl-phenyl)-[1,3,5]triazine-2,4-diamine] | ≤ 1000 |

Now from value to compound:

| IC50 [nM] | Compound |
| --- | --- |
| ≤ 1000 | CCN(CC)c1nc(Nc2ccc(F)cc2)nc(N2CCN(c3ncccc3Cl)CC2)n1 [Compound 90, 6-[4-(3-Chloro-pyridin-2-yl)-piperazin-1-yl]-N,N-diethyl-N′-(4-fluoro-phenyl)-[1,3,5]triazine-2,4-diamine] |
| ≤ 1000 | CCCCc1ccc(-c2nc(Nc3ccc(C(F)(F)F)cc3)nc(N3CCN(c4ncccc4Cl)C[C@H]3C)n2)cc1 [Compound 115, {4-(4-Butyl-phenyl)-6-[4-(3-chloro-pyridin-2-yl)-2-methyl-piperazin-1-yl]-[1,3,5]triazin-2-yl}-(4-trifluoromethyl-phenyl)-amine] |
| ≤ 1000 | Cc1ccc(Nc2cc(N3CCOCC3)nc(N3CCN(c4ncccc4C(F)(F)F)CC3)n2)cc1 [Compound 106, {6-Morpholin-4-yl-2-[4-(3-trifluoromethyl-pyridin-2-yl)-piperazin-1-yl]-pyrimidin-4-yl}-p-tolyl-amine] |
| ≤ 1000 | COc1ccc(Nc2nc(N3CCOCC3)cc(N3CCN(c4ncccc4C(F)(F)F)CC3)n2)cc1 [Compound 89, (4-Methoxy-phenyl)-{4-morpholin-4-yl-6-[4-(3-trifluoromethyl-pyridin-2-yl)-piperazin-1-yl]-pyrimidin-2-yl}-amine] |
| ≤ 1000 | CCN(CC)c1nc(Nc2ccc(F)cc2)nc(N2CCN(c3ccccn3)CC2)n1 [Compound 94, N,N-Diethyl-N′-(4-fluoro-phenyl)-6-(4-pyridin-2-yl-piperazin-1-yl)-[1,3,5]triazine-2,4-diamine] |
| ≤ 1000 | CCN(CC)c1nc(Nc2ccc(F)c(F)c2)nc(N2CCN(c3ncccc3Cl)CC2)n1 [Compound 91, 6-[4-(3-Chloro-pyridin-2-yl)-piperazin-1-yl]-N-(3,4-difluoro-phenyl)-N′,N′-diethyl-[1,3,5]triazine-2,4-diamine] |
| ≤ 1000 | CCN(CC)c1nc(Nc2ccc(C#N)cc2)nc(N2CCN(c3ncccc3Cl)CC2)n1 [Compound 107, 4-{4-[4-(3-Chloro-pyridin-2-yl)-piperazin-1-yl]-6-diethylamino-[1,3,5]triazin-2-ylamino}-benzonitrile] |
| ≤ 1000 | Fc1ccc(Nc2cc(N3CCN(c4ncccc4C(F)(F)F)CC3)nc(CN3CCOCC3)n2)cc1F [Compound 112, (3,4-Difluoro-phenyl)-{2-morpholin-4-ylmethyl-6-[4-(3-trifluoromethyl-pyridin-2-yl)-piperazin-1-yl]-pyrimidin-4-yl}-amine] |
| ≤ 1000 | Cc1ccc(Nc2nc(N3CCOCC3)cc(N3CCN(c4ncccc4C(F)(F)F)CC3)n2)cc1 [Compound 87, {4-Morpholin-4-yl-6-[4-(3-trifluoromethyl-pyridin-2-yl)-piperazin-1-yl]-pyrimidin-2-yl}-p-tolyl-amine] |
| ≤ 1000 | C[C@@H]1CN(c2ncccc2S(C)(=O)=O)CCN1c1nc(Nc2ccc(F)c(F)c2)nc(N2CCOCC2)n1 [Compound 103, (3,4-Difluoro-phenyl)-{4-[4-(3-methanesulfonyl-pyridin-2-yl)-2-methyl-piperazin-1-yl]-6-morpholin-4-yl-[1,3,5]triazin-2-yl}-amine (R)] |
